These results are taken from PMC12156367, “Synthesis and Biological Evaluation of Seco-Coumarin/Furoxan Hybrids as Potent Anti-Tumor Agents to Overcome Multidrug Resistance via Multiple Mechanisms” (Molecules, 2025).

Series [1] relates to MCF-7/ADR (doxorubicin-resistant human breast cancer cell line). The settings on record: earlier compounds, ref 19 (4A93), 20 (6C44), cited from earlier work; for IC50: read-out: IC50 MCF-7/ADR (Figure 2).
For series [2] the test system is unchanged. Nature of the series: In vitro antiproliferative assay (MTT, 48 h), MCF-7/ADR. The settings on record: for Selectivity Ratio IC50(MCF-7)/ IC50(MCF-7/ADR): collateral sensitivity; for IC50: Homo sapiens, NCI/ADR-RES, MTT, 48 h, mean of three determinations. The format is cell-based. From the text:
(§1) The MDA-MB-468 cell line was procured from the Cell Bank of the Chinese Academy of Sciences. The MCF-7, MCF-7/ADR, MCF-10A, and MDA-MB-231 cell lines were kindly provided by Professor Xianyi Sha (Fudan University, Shanghai, China). The HUVEC cells were kindly provided by Associate Professor Hulie Zeng (Fudan University, Shanghai, China). The MDA-MB-468, MDA-MB-231, MCF-7, MCF-10A, and HUVEC cells were cultivated in DMEM (Service Biotechnology, China) supplemented with 10% FBS (Capricorn Scientific, Germany) and 1% penicillin-streptomycin (Meilunbio, Dalian, China). For the MCF-7/ADR cells, they were cultured in RPMI-1640 (Service Biotechnology, Wuhan, China), containing 10% FBS and 1% penicillin-streptomycin. Additionally, 500 ng/mL of doxorubicin (Sigma-Aldrich, Saint Louis, MO, USA) was incorporated into the RPMI-1640 culture medium to keep drug resistance. All cell lines were cultured in a humidified incubator at 37 °C with a 5% CO2 atmosphere.
Following harvest during logarithmic growth, cells were plated in 96-well culture plates at an initial density of 5000 cells per well. Incubate the plate overnight at 37 °C to allow the cells to adhere. Following the overnight incubation, introduce the compound at the predetermined concentration into each well, and then return the plate to the incubator for an additional 48 h culture period. After the 48 h treatment, carefully aspirate the drug-containing medium from each well. Subsequently, add 150 μL of 0.5 mg/mL MTT (Beyotime, China) solution to each well. Protect the plate from light and incubate it at 37 °C for 4 h to allow the formation of formazan crystals. Finally, add 150 μL of DMSO (Sinopharm, China) to each well and gently mix to ensure complete dissolution of the formazan crystals. The OD value at 570nm was measured using a microplate reader (Thermo Fisher, Waltham, MA, USA). Cell proliferation inhibition was determined using the following formula:Inhibition (%) = [(ODDMSO − ODcompd.)/(ODDMSO − ODblank)] × 100
GraphPad Prism software 9 was used to calculate the IC50 values. The specific calculation process is as follows: Firstly, we input the experimental data into Prism. The data include the concentrations of the experimental compounds and the corresponding biological response values. For instance, in the cell experiment, we recorded the cell viability values at different drug concentrations. Subsequently, we select the option of “Dose–Response–Nonlinear Regression” in the “Analyze” menu for curve fitting. Generally speaking, we use the model of “[Inhibitor] vs. normalized response—Variable slope”. The Prism software fits the data through the nonlinear least squares method and finds the parameter values that can minimize the difference between the model’s predicted values and the actual data. After completing the curve fitting, the software will directly provide the estimated values and confidence intervals of the IC50 value and other relevant parameters. Meanwhile, it will also offer goodness-of-fit indices, such as the correlation coefficient, to evaluate the quality of the fitting. Through the above method, we can accurately calculate the IC50 value, thereby assessing the intensity of the inhibitory or activating effect of the compound on the biological system.

Series [3] has as its system human normal mammary epithelial cell lines MCF-10A. Nature of the series: Cytotoxicity in normal mammary epithelial cells (MTT). The format is cell-based. The settings on record: normal mammary epithelial cell line.
Description: as §1, with “Additionally, 500 ng/mL of doxorubicin (Sigma-Aldrich, Saint Louis, MO, USA) was incorporated into the RPMI-1640 culture medium to keep drug resistance. All cell lines were cultured in a humidified incubator at 37 °C with a 5% CO2 atmosphere.” left out
Following harvest during logarithmic growth, cells were plated in 96-well culture plates at an initial density of 5000 cells per well. […] The OD value at 570nm was measured using a microplate reader (Thermo Fisher, Waltham, MA, USA). Cell proliferation inhibition was determined using the following formula:Inhibition (%) = [(ODDMSO − ODcompd.)/(ODDMSO − ODblank)] × 100
GraphPad Prism software 9 was used to calculate the IC50 values. […] For instance, in the cell experiment, we recorded the cell viability values at different drug concentrations. […]

Series [4] is described as follows: Solubility experiment (HPLC) in water/acetonitrile. The format is physicochemical. The settings on record: in water/acetonitrile (table title). As to the method:
Wavelength: 254 nm; flow rate: 1.0 mL/min; column temperature: 25 °C. Mobile phase: Phase A: water, Phase B: acetonitrile (Table 5).
Compounds were dissolved in chromatographic-grade acetonitrile and diluted to concentrations of 200, 100, 50, 25, 12.5, and 6.25 µg/mL. A standard curve was plotted using the peak area under the curve (AUC) versus concentration. […] The supernatant was filtered through an ultrafiltration membrane and then subjected to HPLC analysis. The solubility of the target compound was determined by substituting the AUC of the test compound into the standard curve. Each measurement was performed in triplicate.

Series [5] deals with HUVEC (human umbilical vein endothelial cell lines). Nature of the series: Cytotoxicity screen in HUVEC. The format is cell-based. The settings on record: 500 nM concentration.
Description: as §1
Following harvest during logarithmic growth, cells were plated in 96-well culture plates at an initial density of 5000 cells per well. Incubate the plate overnight at 37 °C to allow the cells to adhere. […] The OD value at 570nm was measured using a microplate reader (Thermo Fisher, Waltham, MA, USA). Cell proliferation inhibition was determined using the following formula:Inhibition (%) = [(ODDMSO − ODcompd.)/(ODDMSO − ODblank)] × 100 […]

Structures are written as SMILES. Where two headings read alike, the source gives them in different places.

For `Cc1c(Cc2ccc(C(F)(F)F)cc2)c(=O)oc2cc(OCCOc3no[n+]([O-])c3S(=O)(=O)c3ccccc3)ccc12` [Compound 4A93], in series [1], the IC50 is 5 nM.

In the case of `COc1cc(OCCOc2no[n+]([O-])c2S(=O)(=O)c2ccccc2)ccc1C(=O)/C=C/c1ccccc1` [Compound 6C44], in series [1], the “IC50(MCF-7)/IC50(MCF-7/ADR) (Figure 2)” value is 199.2 and the IC50 was 4.2 nM.

With `COc1ccc(/C=C/C(=O)c2ccc(OCCCOc3no[n+]([O-])c3S(=O)(=O)c3ccccc3)cc2OC)cc1` [Compound 6d, (E)-4-(3-(3-methoxy-4-(3-(4-methoxyphenyl)acryloyl)phenoxy)propoxy)-3-(phenylsulfonyl)-1,2,5-oxadiazole 2-oxide], in series [2], the “Selectivity Ratio IC50(MCF-7)/ IC50(MCF-7/ADR)” value is listed as 91.1. In addition, in series [3], the IC50 worked out at 13400 nM. In addition, the Solubility in series [4] is listed as 24.3 ± 2.5%.

With `COc1cc(OCCOc2no[n+]([O-])c2S(=O)(=O)c2ccccc2)ccc1C(C)=O` [Compound 12a, 4-(2-(4-acetyl-3-methoxyphenoxy)ethoxy)-3-(phenylsulfonyl)-1,2,5-oxadiazole 2-oxide], in series [2], the “Selectivity Ratio IC50(MCF-7)/ IC50(MCF-7/ADR)” value was found to be 189.3. Also, in series [5], the “cell survival probability in HUVEC” value is “over 90%”. Moreover, the Solubility in series [4] was found to be 67.9 ± 7.8%.

Consider `COc1cc(OCCOc2no[n+]([O-])c2S(=O)(=O)c2ccccc2)ccc1C(=O)NCc1ccc(F)cc1` [Compound 18b, 4-(2-(4-((4-fluorobenzyl)carbamoyl)-3-methoxyphenoxy)ethoxy)-3-(phenylsulfonyl)-1,2,5-oxadiazole 2-oxide], for which the “Selectivity Ratio IC50(MCF-7)/ IC50(MCF-7/ADR)” value in series [2] was 101.7. Besides, in series [4], the Solubility turned out to be 60.9 ± 9.8%.

For the compound `COc1cc(OCCOc2no[n+]([O-])c2S(=O)(=O)c2ccccc2)ccc1C(=O)NCc1ccc(C(F)(F)F)cc1` [Compound 18d, 4-(2-(3-methoxy-4-((4-(trifluoromethyl)benzyl)carbamoyl)phenoxy)ethoxy)-3-(phenylsulfonyl)-1,2,5-oxadiazole 2-oxide], in series [2], the IC50 was found to be 6.56 nM and the “Selectivity Ratio IC50(MCF-7)/ IC50(MCF-7/ADR)” value came to 163.0. In addition, the Solubility in series [4] is on record as 26.2 ± 7.2%.

Take `COc1cc(OCCOc2no[n+]([O-])c2S(=O)(=O)c2ccccc2)ccc1C(=O)NCc1ccc(C#N)cc1` [Compound 18e, 4-(2-(4-((4-cyanobenzyl)carbamoyl)-3-methoxyphenoxy)ethoxy)-3-(phenylsulfonyl)-1,2,5-oxadiazole 2-oxide]: in series [2], the IC50 is 19.9 nM and the “Selectivity Ratio IC50(MCF-7)/ IC50(MCF-7/ADR)” value is on record as 235.0. The same compound displayed a Solubility in series [4] of 44.7 ± 10.2%.
